Data: patent publication US20240041042A1, “1-(PYRIDYL)-5-AZINYLPYRAZOLE DERIVATIVES, AND THEIR USE FOR CONTROL OF UNDESIRED PLANT GROWTH” (Bayer Aktiengesellschaft, priority 2020, published 2024)
Like-named read-outs stand apart in the source and are kept apart here.

Tests used:
Assay type in all cases: in vivo
[1] = test system: Lolium rigidum (LOLRI); test: Pre-emergence herbicidal action against LOLRI
Procedure, shortened: (§1)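 Pre-emergence soil-surface spray, WP/EC formulation, 0.5% additive, 600 l/ha water, rates of 320 g/ha or lower. Greenhouse, ~3 wk. Visual score, % of untreated control (100% = plants dead, 0% = like control).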

[2] = test system: Matricaria inodora (MATIN); test: Pre-emergence herbicidal action against MATIN; settings: dosage 320 g/ha
Procedure, shortened: as §1

[3] = test system: Viola tricolor (VIOTR); test: Pre-emergence herbicidal action against VIOTR
Procedure, shortened: as §1

[4] = test system: Polygonum convolvulus (POLCO); test: Post-emergence herbicidal action against POLCO
Procedure, shortened: (§2)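 Values are percent visual activity (0% like control, 100% plants dead) after about 3 weeks in the greenhouse. Treatment: post-emergence spray at one-leaf stage, 600 l/ha spray volume, 0.5% additive, doses 320 g/ha or lower.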

[5] = test system: Verconica persica (VERPE); test: Pre-emergence herbicidal action against VERPE
Procedure, shortened: as §1

[6] = test system: Amaranthus retroflexus (AMARE); test: Post-emergence herbicidal action against AMARE
Procedure, shortened: as §2

[7] = test system: Avena fatua (AVEFA); test: Post-emergence herbicidal action against AVEFA; settings: visual rating about 3 weeks after treatment
Procedure, shortened: as §2

[8] = test system: Amaranthus retroflexus (AMARE); test: Pre-emergence herbicidal action against AMARE; settings: visual scoring after about 3 weeks vs untreated controls
Procedure, shortened: as §1

[9] = test system: Polygonum convolvulus (POLCO); test: Pre-emergence herbicidal action against POLCO
Procedure, shortened: as §1

[10] = test system: Alopecurus myosuroides (ALOMY); test: Post-emergence herbicidal action against ALOMY; settings: visual rating about 3 weeks after treatment vs untreated controls (100% = plants have died, 0% = like control plants)
Procedure, shortened: as §2

[11] = test system: Echinochloa crus-galli (ECHCG); test: Pre-emergence herbicidal action against ECHCG
Procedure, shortened: as §1

[12] = test system: Alopecurus myosuroides (ALOMY); test: Pre-emergence herbicidal action against ALOMY; settings: scored visually after about 3 weeks, 100% = plants have died
Procedure, shortened: as §1

[13] = test system: Oryza sativa (ORYSA); settings: crop plant compatibility
Procedure, shortened: (§3)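 One-leaf-stage crops (2–3 wk post-sowing, sandy loam, greenhouse) sprayed on green parts; 0.5% additive, 600 l/ha water. Rated by eye ~3 wk later, % vs untreated; suffixes a/b/c mark different dosages.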

[14] = test system: Zea mays (ZEAMX); settings: for Post-emergence action against ZEAMX in % (crop plant compatibility): 20 g/ha, effect in comparison to untreated controls; for Post-emergence action against ZEAMX in %: crop plant compatibility, effect vs untreated controls
Procedure, shortened: as §3

[15] = test system: Triticum aestivum (TRZAS); settings: crop plant compatibility, effect vs untreated controls
Procedure, shortened: as §3

[16] = test system: Setaria viridis (SETVI); test: Pre-emergence herbicidal action against SETVI
Procedure, shortened: as §1

[17] = test system: Verconica persica (VERPE); test: Post-emergence herbicidal action against VERPE
Procedure, shortened: as §2

[18] = test system: Avena fatua (AVEFA); test: Pre-emergence herbicidal action against AVEFA; settings: 320 g/ha, visual scoring after about 3 weeks vs untreated controls
Procedure, shortened: as §1

[19] = test system: Echinochloa crus-galli (ECHCG); test: Post-emergence herbicidal action against ECHCG
Procedure, shortened: as §2

[20] = test system: Pharbitis purpurea (PHBPU); test: Post-emergence herbicidal action against PHBPU
Procedure, shortened: as §2

[21] = test system: Abutilon theophrasti (ABUTH); test: Post-emergence herbicidal action against ABUTH; settings: 320 g/ha, visual rating about 3 weeks after treatment vs untreated controls (100% = plants have died, 0% = like control plants)
Procedure, shortened: as §2

[22] = test system: Matricaria inodora (MATIN); test: Post-emergence herbicidal action against MATIN; settings: dosage 320 g/ha
Procedure, shortened: as §2

[23] = test system: Viola tricolor (VIOTR); test: Post-emergence herbicidal action against VIOTR
Procedure, shortened: as §2

[24] = test system: Lolium rigidum (LOLRI); test: Post-emergence herbicidal action against LOLRI; settings: dosage 320 g/ha
Procedure, shortened: as §2

[25] = test system: Pharbitis purpurea (PHBPU); test: Pre-emergence herbicidal action against PHBPU; settings: dosage 320 g/ha
Procedure, shortened: as §1

[26] = 20 g/ha, effect vs untreated controls
[27] = 320 g/ha, visual rating about 3 weeks after treatment
[28] = 80 g/ha, effect in comparison to untreated controls
[29] = 320 g/ha, effect in comparison to untreated controls

Row | Post-emergence action against ORYSA in % [13, 26] [%] | Post-emergence action against ZEAMX in % (crop plant compatibility) [14] [%] | Post-emergence action against ZEAMX in % ([14]; 80 g/ha) [%] | Post-emergence action against TRZAS in % ([15]; 20 g/ha) [%] | Structure (SMILES) | Pre-emergence action against VIOTR in % ([3]; 320 g/ha, Viola tricolor) [%] | Pre-emergence action against VIOTR in % ([3]; dosage 80 g/ha) [%] | Post-emergence action against POLCO in % ([4]; dosage 80 g/ha) [%] | Pre-emergence action against VERPE in % ([5]; dosage 320 g/ha) [%] | Pre-emergence action against AMARE in % ([8]; 320 g/ha) [%] | Pre-emergence action against POLCO in % ([9]; dosage 320 g/ha) [%] | Pre-emergence action against ECHCG in % ([11]; dosage 320 g/ha) [%] | Pre-emergence action against ALOMY ([12]; 320 g/ha) [%] | Pre-emergence action against SETVI in % ([16]; dosage 320 g/ha) [%] | Post-emergence action against VERPE in % ([17]; dosage 80 g/ha) [%] | Pre-emergence action against AVEFA in % [18] [%] | Post-emergence action against ECHCG in % ([19]; dosage 320 g/ha) [%] | Post-emergence action against POLCO in % ([4]; dosage 320 g/ha) [%] | Post-emergence action against AMARE in % [6, 27] [%] | Post-emergence action against ABUTH in % [21] [%] | Post-emergence action against VERPE in % ([17]; 320 g/ha, VERPE) [%] | also measured
1 | 20 | 0 | 10 | 20 | CS(=O)(=O)NC(=O)COc1nn(-c2ncccc2F)c(-c2ccc(F)nc2)c1Br [Example I-44] | 100 | 100 | 90 | 80 | 90 | 90 | 100 | 100 | 100 | 80 | 90 | – | – | – | – | – | Pre-emergence action against LOLRI in % ([1]; dosage 80 g/ha): 80%; Pre-emergence action against LOLRI in % ([1]; dosage 320 g/ha): 100%; Pre-emergence action against MATIN in % [2]: 90%; Post-emergence action against AMARE in % ([6]; 80 g/ha, visual rating about 3 weeks after treatment vs untreated controls (100% = plants have died, 0% = like control plants)): 80%; Post-emergence action against AVEFA in % ([7]; 80 g/ha): 90%; Pre-emergence action against AMARE in % ([8]; 80 g/ha): 80%; Pre-emergence action against POLCO in % ([9]; dosage 80 g/ha): 90%; Post-emergence action against ALOMY in % ([10]; 80 g/ha): 80%; Pre-emergence action against ECHCG in % ([11]; dosage 80 g/ha): 80%; Pre-emergence action against ALOMY ([12]; 80 g/ha): 100%; Pre-emergence action against SETVI in % ([16]; dosage 80 g/ha): 90%
2 | – | – | – | 0 | C=Cc1c(OCC(=O)OCC)nn(-c2ccccn2)c1-c1ccc(F)nc1 [Example I-273] | – | – | – | – | – | – | – | – | – | 80 | – | 90 | 80 | 80 | 80 | 90 | Post-emergence action against PHBPU in % ([20]; dosage 80 g/ha): 80%; Post-emergence action against PHBPU in % ([20]; dosage 320 g/ha): 90%; Post-emergence action against MATIN in % [22]: 80%; Post-emergence action against VIOTR in % ([23]; 80 g/ha): 90%; Post-emergence action against VIOTR in % ([23]; 320 g/ha): 90%
3 | 0 | 0 | 0 | 20 | CCOC(=O)COc1nn(-c2ncccc2F)c(-c2ccnc(F)c2)c1I [Example I-137] | – | – | 80 | – | – | – | – | – | – | – | – | 80 | 80 | 80 | 80 | 80 | Post-emergence action against LOLRI in % [24]: 90%; Post-emergence action against ALOMY in % ([10]; 320 g/ha): 80%; Post-emergence action against ORYSA in % [13, 28]: 10%; Post-emergence action against ORYSA in % [13, 29]: 20%; Post-emergence action against ZEAMX in % ([14]; 320 g/ha): 20%; Post-emergence action against TRZAS in % ([15]; 80 g/ha): 20%; Post-emergence action against VIOTR in % ([23]; 80 g/ha): 80%; Post-emergence action against VIOTR in % ([23]; 320 g/ha): 80%
4 | – | – | 20 | – | O=C(O)COc1nn(-c2ncccc2C(F)(F)F)c(-c2cncc(F)c2)c1I [Example I-186] | 90 | 80 | – | 90 | 90 | 80 | 80 | 90 | 80 | – | 80 | 90 | 80 | – | 80 | 80 | Post-emergence action against ECHCG in % ([19]; dosage 80 g/ha): 80%; Pre-emergence action against VERPE in % ([5]; dosage 80 g/ha): 90%; Post-emergence action against AVEFA in % ([7]; 320 g/ha): 80%; Pre-emergence action against PHBPU in % [25]: 90%; Post-emergence action against ORYSA in % [13, 28]: 10%; Post-emergence action against ORYSA in % [13, 29]: 20%; Post-emergence action against TRZAS in % ([15]; 80 g/ha): 10%
